*1 amine or outer side, *2 acyl side, *3 side chain or, on linkers, in order; H or OH if unused. Where a SMILES comes first, the peptide text is derived from it. Bridges are numbered along the chain shown (N, C = ends). [ ]: non-standard residue; d: D form. The star is where a group is joined. X3 = O=C(O)CN1CCN(CC(=O)O)CCN(CC(=O)NCCCOCCOCCOCCCN*)CCN(CC(=O)O)CC1; NH(1-deoxy-D-glucityl) = OC[C@@H](O)[C@@H](O)[C@H](O)[C@@H](O)CN*; Pro(trans-4-NH2) = O=C([C@@H]1C[C@@H](N[*:3])CN1[*:1])[*:2]; DOTA = O=C(O)CN1CCN(CC(=O)O)CCN(CC(=O)*)CCN(CC(=O)O)CC1; Trp(5-Cl) = N[C@@H](Cc1c[nH]c2ccc(Cl)cc12)C(=O)O; Pyridine(2,6-diCH2) = c1cc(C[*:1])nc(C[*:2])c1; Pro(4R-NH2) = N[C@H]1CN[C@H](C(=O)O)C1; Glutaryl = O=C(CCCC(=O)[*:2])[*:1]; X7 = c1cc(CSCCN[*:2])cc(C[*:1])c1; Hyp = O=C(O)[C@@H]1C[C@@H](O)CN1; X1 = O=C(CN1CCC(N[*:1])CC1)[*:2]; Suc = O=C(CCC(=O)[*:2])[*:1]; hSer = N[C@@H](CCO)C(=O)O; Api = NC1(C(=O)O)CCNCC1; Thp = NC1(C(=O)O)CCOCC1
Molecular target: T1, GIPR (CHO-K1-hGIPR cells) (Homo sapiens, UniProt P48546)
T1 construct: host or cells: CHO-K1
T1 sequence (P48546 22-466): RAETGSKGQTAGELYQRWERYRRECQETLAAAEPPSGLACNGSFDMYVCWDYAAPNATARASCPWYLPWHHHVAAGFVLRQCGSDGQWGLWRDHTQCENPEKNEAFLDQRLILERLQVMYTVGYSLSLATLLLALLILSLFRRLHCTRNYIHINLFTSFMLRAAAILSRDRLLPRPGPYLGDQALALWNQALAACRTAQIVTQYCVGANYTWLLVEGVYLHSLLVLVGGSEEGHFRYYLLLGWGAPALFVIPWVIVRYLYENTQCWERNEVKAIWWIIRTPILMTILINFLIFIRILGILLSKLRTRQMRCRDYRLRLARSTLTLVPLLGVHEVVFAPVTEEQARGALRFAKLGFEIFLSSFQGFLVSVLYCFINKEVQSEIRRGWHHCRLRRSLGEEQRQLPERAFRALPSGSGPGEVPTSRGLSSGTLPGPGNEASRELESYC
Experiment: FACS binding assay
Details: competition with 20 nM GIP-057, 4° C., 1 hour, read-out: pIC50 Category (converted)
Summary of the method: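 Read-out: flow cytometric median fluorescence intensity, APC/Cy5 channel, plotted vs peptide conc.; 4PL fit → EC50/pEC50 or IC50/pIC50. Cells: CHO-K1-hGIPR, Accutase-detached, 500.000/mL in PBS + 1% FCS. Detection: APC-streptavidin 1 μg/mL, 30 min, on ice.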

IC50	Structure (SMILES)
10 to 79.4 nM	CC[C@H](C)[C@@H]1NC(=O)[C@H](CC(C)C)NC(=O)C2(CCN(C(=O)CN3CCN(CC(=O)O)CCN(CC(=O)O)CCN(CC(=O)O)CC3)CC2)NC(=O)[C@@H](NC(=O)[C@@H](CC(C)C)NC(=O)[C@H](CCC(=O)O)NC(=O)[C@@H]2C[C@@H](N)CN2C(=O)[C@H](Cc2c[nH]c3ccc(Cl)cc23)NC(=O)[C@H](Cc2c[nH]c3ccccc23)NC(=O)[C@H](CC(=O)O)NC(=O)CCCC(=O)NC[C@H](O)[C@@H](O)[C@H](O)[C@H](O)CO)CSCc2cccc(n2)CSC[C@@H](C(=O)NC2CCN(CC(=O)N[C@H](CCC(=O)NC[C@H](O)[C@@H](O)[C@H](O)[C@H](O)CO)C(N)=O)CC2)NC1=O [GIP-051, AGLU-Glutar-Asp-Trp-5Clw-Tap-Glu-leu-[cys(2Lut)-Apc(DOTA)-Leu-Ile-Cys]-APAc-glu(AGLU)-NH2] ({NH(1-deoxy-D-glucityl)-Glutaryl}-DW[Trp(5-Cl)][Pro(4R-NH2)]E[dL]C[Api](DOTA)LIC[X1][dE](NH(1-deoxy-D-glucityl))-NH2; linker 7-11 via Pyridine(2,6-diCH2))
10 to 79.4 nM	CC[C@H](C)[C@@H]1NC(=O)[C@H](CC(C)C)NC(=O)C2(CCN(C(=O)CN3CCN(CC(=O)O)CCN(CC(=O)O)CCN(CC(=O)O)CC3)CC2)NC(=O)[C@@H](NC(=O)[C@@H](CC(C)C)NC(=O)[C@H](CCC(=O)O)NC(=O)[C@@H]2C[C@@H](N)CN2C(=O)[C@H](Cc2c[nH]c3ccc(Cl)cc23)NC(=O)[C@H](Cc2c[nH]c3ccccc23)NC(=O)[C@H](CC(=O)O)NC(=O)CCCC(=O)NC[C@H](O)[C@@H](O)[C@H](O)[C@H](O)CO)CSCc2cccc(n2)CSC[C@@H](C(=O)NC2CCN(CC(=O)N[C@H](CCC(=O)NC[C@H](O)[C@@H](O)[C@H](O)[C@H](O)CO)C(N)=O)CC2)NC1=O [GIP-052, AGLU-Glutar-Asp-Trp-5Clw-Tap-Glu-leu-[cys(2Lut)-Apc(DOTA)-Leu-Ile-cys]-APAc-glu(AGLU)-NH2] ({NH(1-deoxy-D-glucityl)-Glutaryl}-DW[Trp(5-Cl)][Pro(4R-NH2)]E[dL]C[Api](DOTA)LIC[X1][dE](NH(1-deoxy-D-glucityl))-NH2; linker 7-11 via Pyridine(2,6-diCH2))

Continued, compound first:

Structure (SMILES)	IC50
CC[C@H](C)[C@@H]1NC(=O)[C@H](CC(C)C)NC(=O)C2(CCN(C(=O)CN3CCN(CC(=O)O)CCN(CC(=O)O)CCN(CC(=O)O)CC3)CC2)NC(=O)[C@@H](NC(=O)[C@@H](CC(C)C)NC(=O)[C@H](CCC(=O)O)NC(=O)[C@@H]2C[C@@H](N)CN2C(=O)[C@H](Cc2c[nH]c3ccc(Cl)cc23)NC(=O)[C@H](Cc2c[nH]c3ccccc23)NC(=O)[C@H](CCO)NC(=O)CN2CCC(NC(=O)CCCC(=O)NC[C@H](O)[C@@H](O)[C@H](O)[C@H](O)CO)CC2)CSCc2cccc(n2)CSC[C@@H](C(=O)NC2CCN(CC(=O)N[C@H](CCC(=O)NC[C@H](O)[C@@H](O)[C@H](O)[C@H](O)CO)C(N)=O)CC2)NC1=O [GIP-050, AGLU-Glutar-APAc-Hse-Trp-5Clw-Tap-Glu-leu-[Cys(2Lut)-Apc(DOTA)-Leu-Ile-Cys]-APAc-glu(AGLU)-NH] ({NH(1-deoxy-D-glucityl)-Glutaryl}-[X1][hSer]W[Trp(5-Cl)][Pro(4R-NH2)]E[dL]C[Api](DOTA)LIC[X1][dE](NH(1-deoxy-D-glucityl))-NH2; linker 8-12 via Pyridine(2,6-diCH2))	10 to 79.4 nM
CC[C@H](C)[C@@H]1NC(=O)[C@H](CC(C)C)NC(=O)C2(CCN(C(=O)CN3CCN(CC(=O)O)CCN(CC(=O)O)CCN(CC(=O)O)CC3)CC2)NC(=O)[C@@H](NC(=O)[C@@H](CC(C)C)NC(=O)[C@H](CCC(=O)O)NC(=O)[C@@H]2CCCN2C(=O)[C@H](Cc2c[nH]c3ccc(Cl)cc23)NC(=O)[C@H](Cc2c[nH]c3ccccc23)NC(=O)[C@H](CC(=O)O)NC(=O)CCC(=O)NCCCOCCOCCOCCCNC(=O)CN2CCN(CC(=O)O)CCN(CC(=O)O)CCN(CC(=O)O)CC2)CSCc2cccc(c2)CSCCNC1=O [GIP-053, DOTA-Ttds-Asp-Trp-5Clw-Pro-Glu-leu-[Cys(3MeBn)-Apc(DOTA)-Leu-Ile-AET]] ({X3-Suc}-DW[Trp(5-Cl)]PE[dL]C[Api](DOTA)LI; linker 7-C via X7)	< 10 nM
CC[C@H](C)[C@@H]1NC(=O)[C@H](CC(C)C)NC(=O)C2(CCOCC2)NC(=O)[C@@H](NC(=O)[C@@H](CC(C)C)NC(=O)[C@H](CCC(=O)O)NC(=O)[C@@H]2C[C@@H](O)CN2C(=O)[C@H](Cc2c[nH]c3ccc(Cl)cc23)NC(=O)[C@H](Cc2c[nH]c3ccccc23)NC(=O)[C@H](CC(=O)O)NC(=O)CCC(=O)NCCCOCCOCCOCCCNC(=O)CN2CCN(CC(=O)O)CCN(CC(=O)O)CCN(CC(=O)O)CC2)CSCc2cccc(n2)CSC[C@@H](C(=O)N[C@@H](CCCCNC(=O)CN2CCN(CC(=O)O)CCN(CC(=O)O)CCN(CC(=O)O)CC2)C(N)=O)NC1=O [GIP-054, DOTA-Ttds-Asp-Trp-5Clw-Hyp-Glu-leu-[Cys(2Lut)-Thp-Leu-Ile-Cys]-Lys(DOTA)-NH2] ({X3-Suc}-DW[Trp(5-Cl)][Hyp]E[dL]C[Thp]LICK(DOTA)-NH2; linker 7-11 via Pyridine(2,6-diCH2))	< 10 nM
CC[C@H](C)[C@@H]1NC(=O)[C@H](CC(C)C)NC(=O)C2(CCN(C(=O)CN3CCN(CC(=O)O)CCN(CC(=O)O)CCN(CC(=O)O)CC3)CC2)NC(=O)[C@@H](NC(=O)[C@@H](CC(C)C)NC(=O)[C@H](CCC(=O)O)NC(=O)[C@@H]2C[C@@H](O)CN2C(=O)[C@H](Cc2c[nH]c3ccc(Cl)cc23)NC(=O)[C@H](Cc2c[nH]c3ccccc23)NC(=O)[C@H](CC(=O)O)NC(=O)CCC(=O)NCCCOCCOCCOCCCNC(=O)CN2CCN(CC(=O)O)CCN(CC(=O)O)CCN(CC(=O)O)CC2)CSCc2cccc(n2)CSC[C@@H](C(=O)N[C@@H](CCCCNC(=O)CN2CCN(CC(=O)O)CCN(CC(=O)O)CCN(CC(=O)O)CC2)C(N)=O)NC1=O [GIP-055, DOTA-Ttds-Asp-Trp-5Clw-Hyp-Glu-leu-[Cys(2Lut)-Apc(DOTA)-Leu-Ile-Cys]-Lys(DOTA)-NH2] ({X3-Suc}-DW[Trp(5-Cl)][Hyp]E[dL]C[Api](DOTA)LICK(DOTA)-NH2; linker 7-11 via Pyridine(2,6-diCH2))	< 10 nM
CC[C@H](C)[C@@H]1NC(=O)[C@H](CC(C)C)NC(=O)C2(CCN(C(=O)CN3CCN(CC(=O)O)CCN(CC(=O)O)CCN(CC(=O)O)CC3)CC2)NC(=O)[C@@H](NC(=O)[C@@H](CC(C)C)NC(=O)[C@H](CCC(=O)O)NC(=O)[C@@H]2C[C@@H](NC(=O)CN3CCN(CC(=O)O)CCN(CC(=O)O)CCN(CC(=O)O)CC3)CN2C(=O)[C@H](Cc2c[nH]c3ccc(Cl)cc23)NC(=O)[C@H](Cc2c[nH]c3ccccc23)NC(=O)[C@H](CC(=O)O)NC(=O)CCC(=O)NCCCOCCOCCOCCCNC(=O)CN2CCN(CC(=O)O)CCN(CC(=O)O)CCN(CC(=O)O)CC2)CSCc2cccc(n2)CSC[C@@H](C(=O)N[C@@H](CCCCNC(=O)CN2CCN(CC(=O)O)CCN(CC(=O)O)CCN(CC(=O)O)CC2)C(N)=O)NC1=O [GIP-056, DOTA-Ttds-Asp-Trp-5Clw-Tap(DOTA)-Glu-leu-[Cys(2Lut)-Apc(DOTA)-Leu-Ile-Cys]-Lys(DOTA)-NH2] ({X3-Suc}-DW[Trp(5-Cl)][Pro(trans-4-NH2)](DOTA)E[dL]C[Api](DOTA)LICK(DOTA)-NH2; linker 7-11 via Pyridine(2,6-diCH2))	< 10 nM
